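Each compound was tested at five concentrations against cells in 96-well plates for 48 hours. TGI: concentration producing complete growth inhibition.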

Assay in all cases: NCI tumour cell line growth inhibition, 48 h
The test system of assay [1] is SNB-19 CNS.
For assay [2], the system named is SK-MEL-5 melanoma.
Assay [3] concerns SF-539 CNS.
The subject of assay [4] is UACC-257 melanoma.
The subject of assay [5] is ACHN renal.
For assay [6], the system named is HOP-62 NSCLC.
The test system of assay [7] is HCT-15 colon.
In assay [8] the test system is U251 CNS.
The test system of assay [9] is SK-OV-3 ovarian.
Assay [10] has as its system MALME-3M melanoma.
In assay [11] the test system is COLO 205 colon.
The test system of assay [12] is UO-31 renal.
Assay [13] relates to HOP-92 NSCLC.

For the compound `CC(C)CCNC(=O)c1ccc(CNC(=O)/C=C/c2cccc(Oc3ccccc3)c2)cc1`, the TGI in assay [1] was > 100 µM; in assay [2] it was > 100 µM; in assay [3] it was > 100 µM; in [4], > 100 µM; in assay [5] it was > 100 µM; in assay [6] it was 53.3 µM. For the same compound, the TGI was > 100 µM in assay [7]; > 100 µM in assay [8]; 98.3 µM in [9]; > 100 µM in assay [10]; > 100 µM in assay [11]; > 100 µM in assay [12]. Besides, in assay [13], the TGI was > 100 µM.

Consider `O=C(CSc1nnc(-c2ccccn2)s1)N/N=C/c1ccccc1`, for which the TGI in assay [1], in [2], in assay [3], in assay [4], in [5] and in assay [6] was > 100 µM each time. Also, the TGI in assay [7], in [8], in assay [9], in [10], in [11] and in [12] was > 100 µM each time. The TGI in assay [13] is > 100 µM.

As to `COc1ccc(Cn2c3c(cc(OC(C)=O)c2=O)Cc2ccccc2-3)cc1`, the TGI in assay [1] is > 50 µM; in assay [2] it was 41.6 µM; in assay [3], 28.4 µM; in [4] it was 9.87 µM; in assay [5], 32 µM; in [6], > 50 µM. Besides, the TGI was 39 µM in assay [7]; 26.3 µM in [8]; > 50 µM in [9]; 32.2 µM in assay [10]; > 50 µM in assay [11]; 15.9 µM in assay [12]. Further, the TGI in [13] was found to be 34.1 µM.

Turning to `O=C1OC(CCCN2CCCCC2)(c2ccccc2)CC12CCCC2` (centres undefined), the TGI in assay [1] is > 100 µM; in [2] it was 33.8 µM; in assay [3] it was > 92.1 µM; in assay [4], 48.7 µM; in assay [5] it was > 100 µM; in assay [6] it was > 100 µM. The TGI is > 100 µM in assay [7]; > 100 µM in assay [8]; > 100 µM in assay [9]; 55.7 µM in assay [10]; > 100 µM in [11]; > 100 µM in [12]. Further, the TGI in assay [13] is > 90.8 µM.

Turning to `CS(=O)(=O)Nc1ccc2ccccc2c1-c1c(NS(C)(=O)=O)ccc2ccccc12`, the TGI in [1], in assay [2], in assay [3], in assay [4], in assay [5] and in assay [6] was > 25 µM throughout. The TGI in assay [7], in assay [8], in [9], in [10], in assay [11] and in assay [12] was > 25 µM each time. For the same compound, the TGI in assay [13] was > 25 µM.

Consider `O=C(NN1C(=O)C(Cl)C1c1ccc(Cl)cc1)c1c(Cl)c(Cl)c(Cl)c(Cl)c1-c1nc2ccccc2[nH]1` (centres undefined), for which the TGI in assay [1] is > 100 µM; in [2], > 100 µM; in [3], > 100 µM; in [4], > 100 µM; in assay [5], 43.5 µM; in assay [6], > 100 µM. Further, the TGI is 54.4 µM in [7]; > 100 µM in [9]; 63.4 µM in [10]; 36.2 µM in [11]; > 100 µM in [12]; 51.4 µM in assay [13].

Turning to `N#CSCC(Cl)=CCl` (mixture of isomers), the TGI in assay [1], in assay [2], in assay [3], in assay [4], in [5] and in assay [6] was > 100 µM each time. In addition, the TGI in [7], in [8], in assay [9], in assay [10], in [11] and in assay [12] was > 100 µM each time. In addition, the TGI in assay [13] was > 100 µM.

Regarding `O=C1CS(=O)(=O)C(c2cccc(Oc3ccccc3)c2)N1c1ccc(Cl)cc1` (centres undefined), the TGI in [1] was > 100 µM; in assay [2] it was 26.3 µM; in [3], 39.9 µM; in assay [4], 44.3 µM; in assay [5], 60.5 µM; in assay [6] it was > 100 µM. Also, the TGI in assay [7] was > 100 µM; in assay [8] it was 56.1 µM; in [9], > 100 µM; in [10] it was 73.2 µM; in assay [11] it was 35.5 µM; in assay [12] it was > 100 µM. This compound showed a TGI in assay [13] of 23.8 µM.

As for `COC(=O)c1csc([C@@H](OC(=O)[C@H](C)[C@H](CCCC(C)(Cl)Cl)OC(=O)c2csc([C@H](O)CO)n2)C(C)C)n1`, the TGI stood at 26.8 µM in assay [1]; 31.8 µM in [2]; 8.62 µM in [3]; 23.1 µM in assay [4]; 25.8 µM in assay [5]; 33.6 µM in [6]. For the same compound, the TGI in assay [7] turned out to be 31 µM; in assay [8] it was 32 µM; in [9] it was 29.7 µM; in [10] it was 34.3 µM; in assay [11], 32.3 µM; in [12], 19.9 µM. The TGI in [13] was found to be 23 µM.

For the compound `CCCCCCCC(CC(=O)NC(CO)C(=O)NC(CO)CC(C)C)OC(=O)CC(CCCCCCC)OC(=O)CC(CCCCCCC)OC1OC(C)C(O)C(OC2OC(C)C(OC(C)=O)C(O)C2O)C1O` (centres undefined), the TGI was 18.3 µM in assay [1]; 21.8 µM in [2]; 23.4 µM in assay [3]; 12 µM in assay [4]; 29.2 µM in assay [5]; 31.2 µM in assay [6]. Moreover, the TGI was found to be 14.7 µM in assay [8]; 29.8 µM in [9]; 23.9 µM in assay [10]; 9.14 µM in assay [11]; 28.8 µM in assay [12]; 21 µM in [13].

In the case of `CC(C)NC(=O)OCc1c2c(n(C)c1COC(=O)NC(C)C)-c1cc(Cl)c(Cl)cc1CC2`, the TGI in assay [1] was > 100 µM; in assay [2] it was > 100 µM; in assay [3], > 100 µM; in [4], 86.8 µM; in [5] it was > 100 µM; in [6] it was > 100 µM. Also, the TGI in [7] is > 100 µM; in [8], 40.6 µM; in [9] it was > 100 µM; in [10], > 100 µM; in assay [11], 73.6 µM; in assay [12], > 100 µM. Further, the TGI in assay [13] amounted to 70.9 µM.

For the compound `O=C1C2=Cc3ccccc3OC2(O)Oc2cc3ccccc3cc21` (centres undefined), the TGI was > 100 µM in assay [2]; 79.2 µM in [3]; > 100 µM in assay [4]; > 100 µM in assay [5]; > 100 µM in assay [6]; > 100 µM in [7]. Moreover, the TGI in [8], in assay [9], in assay [10], in assay [11] and in assay [13] was > 100 µM throughout.

`CC(C)(C)C1=C(Br)C(C(C)(C)C)OP1(=O)O` (centres undefined): the TGI in assay [1], in [2], in assay [3], in assay [4], in [5] and in assay [6] was > 100 µM in each case. Moreover, the TGI in assay [7], in [8], in assay [9], in assay [10], in assay [11] and in assay [12] was > 100 µM in each case. In addition, in assay [13], the TGI was > 100 µM.

Turning to `CCOC(=O)/C=C(\C(=O)OCC)n1cc(C)c(=O)n(Cc2cn(CCCCOC(C)=O)nn2)c1=O`, the TGI was 47.3 µM in [1]; > 53.1 µM in [2]; 5.17 µM in assay [3]; 30.5 µM in assay [4]; 11.1 µM in assay [5]; 37.4 µM in assay [6]. Besides, the TGI was > 44.2 µM in assay [7]; 37 µM in [8]; > 70.7 µM in [9]; 4.16 µM in assay [10]; 8.91 µM in [11]; 27.5 µM in [12]. In addition, in assay [13], the TGI stood at 4.7 µM.

In the case of `NC(N)=NS(=O)(=O)c1ccc(NNc2c3ccccc3nc3ccccc23)cc1`, the TGI in assay [1] turned out to be 37.3 µM; in assay [2], 22.3 µM; in assay [3] it was 36.7 µM; in assay [4], 46.1 µM; in assay [5], 23.1 µM; in assay [6], 40.1 µM. For the same compound, the TGI in assay [7] was > 100 µM; in assay [8] it was 24.2 µM; in assay [9] it was 40.3 µM; in [10] it was 32.8 µM; in assay [11] it was 33.2 µM; in [12] it was 66.7 µM. In assay [13], this compound had a TGI of 31.5 µM.

`OC(CC1CCCCN1)c1ccc2c(c1)oc1ccccc12` (centres undefined): the TGI was > 100 µM in assay [1]; 34.1 µM in assay [2]; > 100 µM in [3]; > 100 µM in assay [4]; > 100 µM in assay [5]; > 100 µM in [6]. Moreover, the TGI in [7] is > 100 µM; in [8], > 100 µM; in [9], > 100 µM; in assay [10] it was > 100 µM; in assay [11] it was 45.2 µM; in assay [12], > 100 µM. For the same compound, the TGI in assay [13] is > 100 µM.

`O=[N+]([O-])c1ccc(CSc2nncc3[nH]cnc23)cc1`: the TGI in [2], in [3], in assay [4], in assay [5], in assay [6] and in assay [7] was > 100 µM each time. Also, the TGI in assay [8] is > 100 µM; in assay [9] it was > 100 µM; in [10] it was > 100 µM; in assay [11] it was > 100 µM; in assay [12], > 100 µM; in assay [13], 67.1 µM.

Consider `O=C(O)c1c2c(cc3c1CC(Cc1ccccc1)C3=O)CCC2` (centres undefined), for which the TGI in assay [1], in assay [2], in assay [3], in assay [4], in assay [5] and in assay [6] was > 100 µM throughout. Further, the TGI in assay [7] is > 100 µM; in assay [8], > 100 µM; in assay [9], > 100 µM; in assay [10] it was > 100 µM; in [11], > 100 µM; in assay [12] it was 30.5 µM. In assay [13], the TGI was > 100 µM.

Turning to `CC1(C)N/C(=C\[N+](=O)[O-])C(C)(C)N1O`, the TGI in assay [1], in assay [2], in [3], in assay [4], in [5] and in [6] was > 10 µM throughout. The TGI in assay [7], in assay [8], in assay [9], in assay [10], in [11] and in assay [13] was > 10 µM each time.

For the compound `CC(=O)SCCC(NC(=S)Nc1ccccc1)P(=O)(Oc1ccccc1)Oc1ccccc1` (centres undefined), the TGI in [1], in [3], in assay [4], in [5], in assay [6] and in assay [7] was > 100 µM throughout. Moreover, the TGI in assay [8], in [9], in [10], in assay [11], in assay [12] and in assay [13] was > 100 µM in each case.

Consider `Cc1c(N2C(=O)C(Cl)C2/C=C/c2ccccc2)c(=O)n(-c2ccccc2)n1C` (centres undefined), for which the TGI in assay [2] stood at 30 µM; in assay [3], 62.3 µM; in [4] it was 33 µM; in assay [5], 45.6 µM; in assay [6], 60.9 µM; in assay [8] it was 21.1 µM. Further, the TGI in [9] is 76.6 µM; in assay [10], 25 µM; in assay [11], 28 µM; in [12] it was 92.4 µM; in assay [13], 50.2 µM.

The values are drawn from PubChem BioAssay (NCI).
